Assay results published in patent US20180021275A1, “METHOD OF TREATING IDIOPATHIC PULMONARY FIBROSIS” (MediciNova, Inc., priority 2014, published 2018).

How the values were obtained:
Assay type in all cases: in vivo, C57BL/6 mice
[1] = system: BLM-induced pulmonary fibrosis in mice; test: Bleomycin (BLM)-induced pulmonary fibrosis in mice, therapeutic regimen, overall conclusion; conditions: administered after detecting fibrosis (therapeutic regimen, from day 7 after BLM)
Experimental: As evidenced by Ashcroft score and lung hydroxyproline content, pulmonary fibrosis was established in all BLM-treated mice. […] In the present study, MN-001 was administered at day 7 after BLM administration. Since BLM induced fibrogenic reaction already at day 7, the treatment schedule in the present study is considered to be a “therapeutic regimen”. […] On day 0, twenty mice were intratracheally administered BLM (Nippon Kayaku, Japan) in 0.9% saline in a volume of 50 μL per animal using a Microsprayer® (Penn-Century, USA). MN-001 and vehicle were administered by oral route in a volume of 10 mL/kg. MN-001 was administered at doses of 30, 100, 300 mg/kg once daily.

[2] = system: BLM-induced pulmonary fibrosis model mice; test: CT evaluation of lung density in BLM-induced pulmonary fibrosis model mice; conditions: for Lung density on day 21: CT, mean ± SD
[3] = system: BLM-induced pulmonary fibrosis model mice; test: Histopathological analysis (Masson's trichrome staining, Ashcroft score) in BLM-induced pulmonary fibrosis model mice; conditions: for Ashcroft score: sacrifice day 21, mean ± SD
Experimental: On day 0, twenty mice were intratracheally administered BLM (Nippon Kayaku, Japan) in 0.9% saline in a volume of 50 μL per animal using a Microsprayer® (Penn-Century, USA). MN-001 and vehicle were administered by oral route in a volume of 10 mL/kg. MN-001 was administered at doses of 30, 100, 300 mg/kg once daily. Right lung tissues prefixed in 10% neutral buffered formalin were embedded in paraffin and sectioned at […] sections were stained with Masson's trichrome staining Kit (Sigma, USA) according to the manufacturer's instructions. The degree of pulmonary fibrosis was evaluated using the Ashcroft score (Ashcroft, T., et al., J Clin Pathol, 1988; 41:467-70) for the quantitative histological analysis.

[4] = system: BLM-induced pulmonary fibrosis model mice; test: Survival analysis in BLM-induced pulmonary fibrosis model mice
Experimental: (§1) On day 0, twenty mice were intratracheally administered BLM (Nippon Kayaku, Japan) in 0.9% saline in a volume of 50 μL per animal using a Microsprayer® (Penn-Century, USA).
(§2) MN-001 and vehicle were administered by oral route in a volume of 10 mL/kg.
(§3) MN-001 was administered at doses of 30, 100, 300 mg/kg once daily.
(§4) The viability, clinical signs and behavior were monitored every day. Body weight was recorded daily after the day of starting the BLM administration (day 0). Animals were sacrificed by exsanguination through the abdominal aorta under pentobarbital sodium anesthesia (Kyoritsu, Japan).

[5] = system: BLM-induced pulmonary fibrosis model mice; test: Cellular analysis of BALF (total cell number) in BLM-induced pulmonary fibrosis model mice; conditions: for Total number of cells in BALF: sacrifice day 21, mean ± SD
Experimental: On day 0, twenty mice were intratracheally administered BLM (Nippon Kayaku, Japan) in 0.9% saline in a volume of 50 μL per animal using a Microsprayer® (Penn-Century, USA). MN-001 and vehicle were administered by oral route in a volume of 10 mL/kg. MN-001 was administered at doses of 30, 100, 300 mg/kg once daily. BALF samples were collected by flushing the lung via the trachea with sterile PBS three times (0.8 mL each). The first lavage was kept separate from the other two. BALF was centrifuged at 1,000×g for 3 minutes at 4° C. and the supernatant was collected and stored at −80° C. until use. The cell pellet from the first fraction and the remaining fractions of lavage fluid were pooled. Total cell number of BALF was counted with a hemocytometer.

[6] = system: BLM-induced pulmonary fibrosis model mice; test: Lung hydroxyproline content in BLM-induced pulmonary fibrosis model mice; conditions: for Lung hydroxyproline contents / Lung Hyp (lung hydroxyproline content): sacrifice day 21, mean ± SD
Experimental: On day 0, twenty mice were intratracheally administered BLM (Nippon Kayaku, Japan) in 0.9% saline in a volume of 50 μL per animal using a Microsprayer® (Penn-Century, USA). MN-001 and vehicle were administered by oral route in a volume of 10 mL/kg. MN-001 was administered at doses of 30, 100, 300 mg/kg once daily. To quantify lung hydroxyproline content, frozen left lung samples (15-25 mg) were processed by an alkaline-acid hydrolysis method as follows. Lung samples were acid-hydrolyzed with 400 μL of 6N HCl at 121° C. for 20 minutes, and neutralized with 400 μL of 4N NaOH containing 10 mg/mL activated carbon. AC buffer (2.2M acetic acid/0.48M citric acid, 400 μL) was added to the samples, followed by centrifugation to collect the supernatant. A standard curve of hydroxyproline was constructed with serial dilutions of trans-4-hydroxy-L-proline (Sigma-Aldrich, USA) starting at 16 μg/mL. The prepared samples and standards (each 400 μL) were mixed with 400 μL chloramine T solution (Wako Pure Chemical Industries Japan) and incubated for 25 minutes at room temperature. The samples were then mixed with Ehrlich's solution (400 μL) and heated at 65° C. for 20 minutes to develop the color. After samples were cooled on ice and centrifuged to remove precipitates, the optical density of each supernatant was measured at 560 nm. The concentrations of hydroxyproline were calculated from the hydroxyproline standard curve. Lung hydroxyproline levels were expressed as […].

[7] = system: BLM-induced pulmonary fibrosis model mice; test: CT evaluation of lung density in BLM-induced pulmonary fibrosis model mice; conditions: for Lung density on day 0 / Lung density on day 7: CT, mean ± SD; for Lung density on day 0: day 0 (before BLM administration and before treatment); for Lung density on day 7: day 7 after BLM (start of treatment)
Experimental: On day 0, twenty mice were intratracheally administered BLM (Nippon Kayaku, Japan) in 0.9% saline in a volume of 50 μL per animal using a Microsprayer® (Penn-Century, USA). MN-001 and vehicle were administered by oral route in a volume of 10 mL/kg. MN-001 was administered at doses of 30, 100, 300 mg/kg once daily. […] The mice were mounted on a holder and placed in the X-ray CT system (LCT-200, Aloka, Japan) under pentobarbital sodium (Kyoritu Seiyaku, Japan) anesthesia. The images were converted into DICOM format and analyzed with Onis Viewer (DigitalCore, Japan). Two section slides (upper: forth dorsal vertebra, lower: seventh dorsal vertebra) were determined from each scan data set, and eight regions of interest (ROI) were defined in the following areas: the right upper anterior and posterior regions, the left upper anterior and posterior region. The means of the intensity of the eight ROIs were defined as an individual's level of lung density.

[8] = Body weight changes in BLM-induced pulmonary fibrosis model mice; conditions: for Body weight changes (%) on the day of sacrifice: percentage of baseline (day 0), mean ± SD
Experimental: Seven-week-old female C57BL/6 mice (17-21 g) were obtained from Japan SLC (Japan). Animals were housed and fed with normal diet (CE-2; CLEA Japan) under conventional conditions. All animals used in this study were cared following appropriate guidelines.
as §1, §2, §3, §4
Body weight was expressed as percentage body weight change from baseline (day 0).

[9] = MN-001 30 mg/kg oral once daily day 7 to 20, n = 8
[10] = MN-001 100 mg/kg oral once daily day 7 to 20, n = 10
[11] = MN-001 300 mg/kg oral once daily day 7 to 20, n = 10
[12] = MN-001 30 mg/kg oral once daily day 7 to 20, n = 8, 30 mg/kg
[13] = MN-001 100 mg/kg oral once daily day 7 to 20, n = 10, 100 mg/kg
[14] = MN-001 300 mg/kg oral once daily day 7 to 20, n = 10, 300 mg/kg
[15] = MN-001 treatment, all doses, administered from day 7 after BLM
[16] = MN-001 30 mg/kg oral once daily day 7 to 20
[17] = MN-001 100 mg/kg oral once daily day 7 to 20
[18] = MN-001 300 mg/kg oral once daily day 7 to 20

SMILES: CCCc1c(SCCCOc2ccc(C(C)=O)c(OCCCC(=O)O)c2CCC)ccc(C(C)=O)c1O [MN-001]
- Anti-fibrogenic effect [1]: significant anti-fibrogenic effect
- Lung density on day 21 [2, 9]: −186 ± 84
- Lung density on day 21 [2, 10]: −200 ± 122
- Lung density on day 21 [2, 11]: −260 ± 107
- Lung density on day 0, 7 and 21 compared to the Vehicle group ([2]; any of the MN-001 treated groups, statistical comparison): no significant differences
- Ashcroft score [3, 12]: 2.0±0.7
- Ashcroft score compared to the Vehicle group ([3]; MN-001 30 mg/kg treatment): tended to decrease
- Ashcroft score [3, 13]: 2.2±0.8
- Ashcroft score compared to the Vehicle group ([3]; MN-001 100 mg/kg treatment): tended to decrease
- Ashcroft score compared to the Vehicle group ([3]; MN-001 300 mg/kg group): significantly decreased
- Ashcroft score [3, 14]: 1.8±0.6
- Ashcroft score compared to the Vehicle group at day 21 (summary) [3, 15]: significant reduction or a decreasing trend
- Mice died before reaching day 21 ([4]; MN-001 30 mg/kg group, during the treatment period (Vehicle: two out of 10)): Two out of 10
- Survival rate compared to the Vehicle group ([4]; MN-001 treated groups (30, 100, 300 mg/kg)): no significant differences
- Total number of cells in BALF [5, 16]: 65.1±26.1 ×10^5 cells
- Total number of cells in BALF [5, 17]: 124.4±127.3 ×10^4 cells
- Total number of cells in BALF [5, 18]: 76.0±35.0 ×10^5 cells
- Total number of cells in BALF compared to the Vehicle group ([5]; any MN-001 treated groups): no significant differences
- Lung hydroxyproline contents compared to the Vehicle group ([6]; MN-001 30 mg/kg group): significantly decreased
- Lung hydroxyproline contents [6, 16]: 49.8±7.9 μg/left lung
- Lung Hyp (lung hydroxyproline content) [6, 9]: 49.8 ± 7.9 µg/left lung
- Lung hydroxyproline contents compared to the Vehicle group ([6]; MN-001 100 mg/kg group): significantly decreased
- Lung hydroxyproline contents [6, 17]: 56.1±10.1 μg/left lung
- Lung Hyp (lung hydroxyproline content) [6, 10]: 56.1 ± 10.1 µg/left lung
- Lung hydroxyproline contents [6, 18]: 56.4±12.7 μg/left lung
- Lung Hyp (lung hydroxyproline content) [6, 11]: 56.4 ± 12.7 µg/left lung
- Lung hydroxyproline content compared to the Vehicle group ([6]; MN-001 300 mg/kg treatment): tended to decrease
- Lung hydroxyproline content compared to the Vehicle group at day 21 (summary) [6, 15]: significant reduction or a decreasing trend
- Lung density on day 0 ([7]; MN-001 30 mg/kg group, n = 8): −445 ± 17
- Lung density on day 7 ([7]; MN-001 30 mg/kg group, n = 8): −375 ± 77
- Lung density on day 0 ([7]; MN-001 100 mg/kg group, n = 10): −444 ± 18
- Lung density on day 7 ([7]; MN-001 100 mg/kg group, n = 10): −343 ± 84
- Lung density on day 0 ([7]; MN-001 300 mg/kg group, n = 10): −423 ± 19
- Lung density on day 7 ([7]; MN-001 300 mg/kg group, n = 10): −415 ± 83
- Lung density, visually observed in the graphs (FIGS. 1.1 to 1.3) ([7]; MN-001 treated groups vs Vehicle): downward trend
- Body weight changes (%) on the day of sacrifice [8, 12]: 104.8±3.7%
- Body weight changes (%) on the day of sacrifice [8, 13]: 100.9±10.6%
- Body weight changes (%) on the day of sacrifice [8, 14]: 104.2±4.1%
- Mean body weight loss on the day of sacrifice compared to the Vehicle group ([8]; MN-001 treated groups (30, 100, 300 mg/kg), Bonferroni multiple comparison test): no significant differences
